From BigSolDB 2.1

O=C(O)c1ccccc1Nc1ccccc1
solubility (mole fraction)
Conditions | in ethanol | in methanol | in tert-butanol
283.15 K | 0.0101 | 0.00519 | –
285.65 K | 0.0107 | 0.00556 | –
288.15 K | 0.0112 | 0.00606 | –
290.65 K | 0.0112 | 0.00653 | –
293.15 K | 0.0123 | 0.00701 | –
295.65 K | 0.0131 | 0.0073 | –
298.15 K | 0.0136 | 0.00796 | 0.0189
300.65 K | 0.0144 | 0.00837 | 0.02
303.15 K | 0.0154 | 0.00883 | 0.0225
305.65 K | 0.0163 | 0.00916 | 0.0256
308.15 K | 0.0175 | 0.00971 | 0.0279
310.65 K | 0.0187 | 0.0103 | 0.0298
313.15 K | 0.02 | 0.0117 | 0.0319
315.65 K | 0.0221 | 0.0134 | 0.0353
318.15 K | 0.0242 | 0.0156 | 0.0389
